# From the supplement of paper PMC10307832
# Key:
# Experiment in all cases: relative viability (nuclei count vs DMSO), 5 days (fraction); higher = more cells survive
# NCI-H1666 = test system: NCI-H1666
# Method in brief: (§1)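 A single step with final 0.05% Triton X-100, 1% formaldehyde and 1 ug/ml Hoechst fixed the cells and stained nuclei 5 days after treatment. Lung cancer cell lines in 1536-well plates had been treated by pin tool the day after seeding with one drug alone or a fixed anchor-drug dose plus five library-drug doses (not always all listed) in √10 steps, and nuclei were counted on 4× images. Relative viability is the ratio of nuclei in treated wells to nuclei in vehicle wells, taken as the median of duplicate plates.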
# NCI-H2085 = test system: NCI-H2085
# Method in brief: as §1
# NCI-H661 = test system: NCI-H661
# Method in brief: as §1
# ABC-1 = test system: ABC-1
# Method in brief: as §1
# NCI-H1355 = test system: NCI-H1355
# Method in brief: as §1
# NCI-H1395 = test system: NCI-H1395
# Method in brief: as §1
# NCI-H838 = test system: NCI-H838
# Method in brief: as §1
# NCI-H647 = test system: NCI-H647
# Method in brief: as §1
# HOP-62 = test system: HOP-62
# Method in brief: as §1
# NCI-H23 = test system: NCI-H23
# Method in brief: as §1
# NCI-H2347 = test system: NCI-H2347
# Method in brief: as §1
# NCI-H2228 = test system: NCI-H2228
# Method in brief: as §1
# 201T = test system: 201T
# Method in brief: as §1
# CAL-12T = test system: CAL-12T
# Method in brief: as §1
# NCI-H2170 = test system: NCI-H2170
# Method in brief: as §1
# LCLC-103H = test system: LCLC-103H
# Method in brief: as §1
# NCI-H1993 = test system: NCI-H1993
# Method in brief: as §1
# COR-L23 = test system: COR-L23
# Method in brief: as §1
# NCI-H1651 = test system: NCI-H1651
# Method in brief: as §1
# NCI-H520 = test system: NCI-H520
# Method in brief: as §1
# NCI-H322M = test system: NCI-H322M
# Method in brief: as §1
# LC-2-ad = test system: LC-2-ad
# Method in brief: as §1
smiles,measurement,setting,value
Cc1cnc(-c2cnc(NCCNc3ccc(C#N)cn3)nc2-c2ccc(Cl)cc2Cl)[nH]1 + COc1cc2c(Oc3ccc(NC(=O)C4(C(=O)Nc5ccc(F)cc5)CC4)cc3F)ccnc2cc1OCCCN1CCOCC1 [Foretinib] (partner 0.25 µM),relative viability,NCI-H1666; first compound 0.08 µM,0.934
same,relative viability,NCI-H1666; first compound 0.253 µM,0.906
same,relative viability,NCI-H1666; first compound 0.8 µM,0.995
same,relative viability,NCI-H1666; first compound 2.53 µM,0.924
same,relative viability,NCI-H2085; first compound 0.08 µM,0.989
same,relative viability,NCI-H2085; first compound 0.253 µM,0.88
same,relative viability,NCI-H2085; first compound 0.8 µM,0.762
same,relative viability,NCI-H2085; first compound 2.53 µM,0.937
same,relative viability,NCI-H661; first compound 0.08 µM,1.05
same,relative viability,NCI-H661; first compound 0.253 µM,0.99
same,relative viability,NCI-H661; first compound 0.8 µM,1.01
same,relative viability,NCI-H661; first compound 2.53 µM,0.894
same,relative viability,ABC-1; first compound 0.08 µM,1.32
same,relative viability,ABC-1; first compound 0.253 µM,1.31
same,relative viability,ABC-1; first compound 0.8 µM,1.34
same,relative viability,ABC-1; first compound 2.53 µM,1.2
same,relative viability,NCI-H1355; first compound 0.08 µM,0.901
same,relative viability,NCI-H1355; first compound 0.253 µM,0.867
same,relative viability,NCI-H1355; first compound 0.8 µM,0.97
same,relative viability,NCI-H1355; first compound 2.53 µM,0.96
same,relative viability,NCI-H1395; first compound 0.08 µM,1.03
same,relative viability,NCI-H1395; first compound 0.253 µM,0.953
same,relative viability,NCI-H1395; first compound 0.8 µM,1.02
same,relative viability,NCI-H1395; first compound 2.53 µM,0.956
same,relative viability,NCI-H838; first compound 0.08 µM,1.04
same,relative viability,NCI-H838; first compound 0.253 µM,1.02
same,relative viability,NCI-H838; first compound 0.8 µM,1.15
same,relative viability,NCI-H838; first compound 2.53 µM,1.21
same,relative viability,NCI-H647; first compound 0.08 µM,1.35
same,relative viability,NCI-H647; first compound 0.253 µM,1.03
same,relative viability,NCI-H647; first compound 0.8 µM,0.938
same,relative viability,NCI-H647; first compound 2.53 µM,1.15
same,relative viability,HOP-62; first compound 0.08 µM,1.05
same,relative viability,HOP-62; first compound 0.253 µM,1.02
same,relative viability,HOP-62; first compound 0.8 µM,1.12
same,relative viability,HOP-62; first compound 2.53 µM,0.947
same,relative viability,NCI-H23; first compound 0.08 µM,0.938
same,relative viability,NCI-H23; first compound 0.253 µM,1
same,relative viability,NCI-H23; first compound 0.8 µM,0.983
same,relative viability,NCI-H23; first compound 2.53 µM,1
same,relative viability,NCI-H2347; first compound 0.08 µM,0.963
same,relative viability,NCI-H2347; first compound 0.253 µM,1.11
same,relative viability,NCI-H2347; first compound 0.8 µM,0.877
same,relative viability,NCI-H2347; first compound 2.53 µM,0.841
same,relative viability,NCI-H2228; first compound 0.08 µM,0.954
same,relative viability,NCI-H2228; first compound 0.253 µM,0.761
same,relative viability,NCI-H2228; first compound 0.8 µM,0.898
same,relative viability,NCI-H2228; first compound 2.53 µM,0.589
same,relative viability,201T; first compound 0.08 µM,1.19
same,relative viability,201T; first compound 0.253 µM,0.807
same,relative viability,201T; first compound 0.8 µM,1.16
same,relative viability,201T; first compound 2.53 µM,1.14
same,relative viability,CAL-12T; first compound 0.08 µM,1.07
same,relative viability,CAL-12T; first compound 0.253 µM,0.946
same,relative viability,CAL-12T; first compound 0.8 µM,1.15
same,relative viability,CAL-12T; first compound 2.53 µM,0.979
same,relative viability,NCI-H2170; first compound 0.08 µM,0.953
same,relative viability,NCI-H2170; first compound 0.253 µM,0.906
same,relative viability,NCI-H2170; first compound 0.8 µM,0.965
same,relative viability,NCI-H2170; first compound 2.53 µM,0.997
same,relative viability,LCLC-103H; first compound 0.08 µM,0.751
same,relative viability,LCLC-103H; first compound 0.253 µM,0.734
same,relative viability,LCLC-103H; first compound 0.8 µM,0.745
same,relative viability,LCLC-103H; first compound 2.53 µM,0.79
same,relative viability,NCI-H1993; first compound 0.08 µM,0.902
same,relative viability,NCI-H1993; first compound 0.253 µM,0.652
same,relative viability,NCI-H1993; first compound 0.8 µM,0.754
same,relative viability,NCI-H1993; first compound 2.53 µM,0.889
same,relative viability,COR-L23; first compound 0.08 µM,0.853
same,relative viability,COR-L23; first compound 0.253 µM,0.877
same,relative viability,COR-L23; first compound 0.8 µM,1.08
same,relative viability,COR-L23; first compound 2.53 µM,0.951
same,relative viability,NCI-H1651; first compound 0.08 µM,0.728
same,relative viability,NCI-H1651; first compound 0.253 µM,0.777
same,relative viability,NCI-H1651; first compound 0.8 µM,0.785
same,relative viability,NCI-H1651; first compound 2.53 µM,0.883
same,relative viability,NCI-H520; first compound 0.08 µM,0.71
same,relative viability,NCI-H520; first compound 0.253 µM,0.593
same,relative viability,NCI-H520; first compound 0.8 µM,0.918
same,relative viability,NCI-H520; first compound 2.53 µM,1.04
same,relative viability,NCI-H322M; first compound 0.08 µM,1.07
same,relative viability,NCI-H322M; first compound 0.253 µM,0.856
same,relative viability,NCI-H322M; first compound 0.8 µM,1
same,relative viability,NCI-H322M; first compound 2.53 µM,1.2
same,relative viability,LC-2-ad; first compound 0.08 µM,0.996
same,relative viability,LC-2-ad; first compound 0.253 µM,0.711
same,relative viability,LC-2-ad; first compound 2.53 µM,1.03
